Several values for one entry are separate records, joined by “and”; a condition that tells them apart may be missing. Equal values may be shown once. Numbers after ± are expanded uncertainties.
Legend:
[1] = Crystal; for vapor or sublimation pressure: Calculated from knudsen effusion weight loss; for Normal melting temperature: DTA
[2] = Molar enthalpy of transition or fusion; details: Crystal; DSC

COc1ccc(C(N)=O)cc1 [4-methoxybenzamide]
[1]
Details | vapor or sublimation pressure
357.12 K | 0.000103 ± 5e-06 kPa
359.19 K | 0.000128 ± 6e-06 kPa and 0.000124 ± 6e-06 kPa
361.16 K | 0.000156 ± 8e-06 kPa and 0.000154 ± 8e-06 kPa
363.12 K | 0.000195 ± 1e-05 kPa and 0.000193 ± 1e-05 kPa
365.2 K | 0.000242 ± 1.2e-05 kPa and 0.000238 ± 1.2e-05 kPa
367.16 K | 0.000292 ± 1.5e-05 kPa and 0.00029 ± 1.5e-05 kPa and 0.000299 ± 1.5e-05 kPa
369.12 K | 0.000366 ± 1.8e-05 kPa and 0.000368 ± 1.8e-05 kPa and 0.000367 ± 1.8e-05 kPa
371.18 K | 0.000455 ± 2.3e-05 kPa and 0.000442 ± 2.2e-05 kPa and 0.000452 ± 2.3e-05 kPa
373.15 K | 0.000548 ± 2.7e-05 kPa and 0.000535 ± 2.7e-05 kPa and 0.000556 ± 2.8e-05 kPa
375.11 K | 0.000689 ± 3.4e-05 kPa and 0.000681 ± 3.4e-05 kPa and 0.000685 ± 3.4e-05 kPa
377.18 K | 0.000833 ± 4.2e-05 kPa and 0.000838 ± 4.2e-05 kPa and 0.000812 ± 4.1e-05 kPa
379.15 K | 0.001012 ± 0.0001 kPa and 0.000985 ± 4.9e-05 kPa and 0.000979 ± 4.9e-05 kPa

Details | Molar enthalpy of transition or fusion [kcal/mol] | Normal melting temperature [°C]
[1] | – | 167.49 ± 0.4
[2] | 6.94 ± 0.16 | –

COc1ccccc1C(N)=O [2-methoxybenzamide]
[1]
Details | vapor or sublimation pressure
335.12 K | 0.0001 ± 5e-06 kPa and 0.000101 ± 5e-06 kPa
337.18 K | 0.000126 ± 6e-06 kPa and 0.000124 ± 6e-06 kPa
339.16 K | 0.000155 ± 8e-06 kPa and 0.000153 ± 8e-06 kPa
341.12 K | 0.000198 ± 1e-05 kPa and 0.000195 ± 1e-05 kPa
343.16 K | 0.000248 ± 1.2e-05 kPa and 0.000241 ± 1.2e-05 kPa and 0.000249 ± 1.2e-05 kPa
345.16 K | 0.000305 ± 1.5e-05 kPa and 0.0003 ± 1.5e-05 kPa and 0.000309 ± 1.5e-05 kPa
347.11 K | 0.000389 ± 1.9e-05 kPa and 0.000382 ± 1.9e-05 kPa and 0.000385 ± 1.9e-05 kPa
349.15 K | 0.000486 ± 2.4e-05 kPa and 0.000474 ± 2.4e-05 kPa and 0.000483 ± 2.4e-05 kPa
351.16 K | 0.000594 ± 3e-05 kPa and 0.000581 ± 2.9e-05 kPa
353.12 K | 0.00075 ± 3.8e-05 kPa and 0.000738 ± 3.7e-05 kPa and 0.000736 ± 3.7e-05 kPa
355.17 K | 0.000924 ± 4.6e-05 kPa and 0.000926 ± 4.6e-05 kPa and 0.00091 ± 4.6e-05 kPa
357.16 K | 0.001122 ± 0.00012 kPa and 0.001121 ± 0.00012 kPa and 0.001106 ± 0.00011 kPa

Details | Molar enthalpy of transition or fusion [kcal/mol] | Normal melting temperature [°C]
[1] | – | 128.51 ± 0.42
[2] | 6.5 ± 0.153 | –

COc1cccc(C(N)=O)c1 [3-methoxybenzamide]
[1]
Details | vapor or sublimation pressure
345.11 K | 7.2e-05 ± 4e-06 kPa and 7.1e-05 ± 4e-06 kPa
347.12 K | 9.2e-05 ± 5e-06 kPa and 8.8e-05 ± 4e-06 kPa
349.16 K | 0.000112 ± 6e-06 kPa and 0.000117 ± 6e-06 kPa
351.12 K | 0.000143 ± 7e-06 kPa and 0.000142 ± 7e-06 kPa
353.16 K | 0.00018 ± 9e-06 kPa and 0.000175 ± 9e-06 kPa and 0.000178 ± 9e-06 kPa
355.16 K | 0.000219 ± 1.1e-05 kPa and 0.000225 ± 1.1e-05 kPa
357.12 K | 0.000283 ± 1.4e-05 kPa and 0.000287 ± 1.4e-05 kPa and 0.000286 ± 1.4e-05 kPa
359.16 K | 0.000357 ± 1.8e-05 kPa and 0.000346 ± 1.7e-05 kPa
361.14 K | 0.000432 ± 2.2e-05 kPa and 0.000428 ± 2.1e-05 kPa and 0.000443 ± 2.2e-05 kPa
363.13 K | 0.00055 ± 2.8e-05 kPa and 0.000547 ± 2.7e-05 kPa and 0.000546 ± 2.7e-05 kPa
365.17 K | 0.00068 ± 3.4e-05 kPa and 0.000682 ± 3.4e-05 kPa and 0.000658 ± 3.3e-05 kPa
367.13 K | 0.000844 ± 4.2e-05 kPa and 0.000848 ± 4.2e-05 kPa and 0.000842 ± 4.2e-05 kPa
369.17 K | 0.001047 ± 0.00011 kPa and 0.001014 ± 0.0001 kPa
371.15 K | 0.001291 ± 0.00014 kPa and 0.001251 ± 0.00013 kPa and 0.00125 ± 0.00013 kPa

Details | Molar enthalpy of transition or fusion [kcal/mol] | Normal melting temperature [°C]
[1] | – | 134.00 ± 0.41
[2] | 6.84 ± 0.153 | –

Source: the NIST ThermoML archive (doi:10.1016/j.jct.2013.06.022)
